In PubChem BioAssay (NCI):
Several values for one entry are separate records, joined by “and”; a condition that tells them apart may be missing. Equal values may be shown once.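 Results reflect a 48-hour exposure of cells in 96-well plates to compound at five concentrations. The concentration for 50% growth inhibition is given as GI50. Definition used: TGI = concentration required for complete inhibition of growth.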

Experiments:
Assay in all cases: inhibition of tumour cell growth, NCI panel, 48 h
[1] = test system: PC-3 prostate
[2] = test system: OVCAR-3 ovarian
[3] = test system: NCI-H522 lung
[4] = test system: HOP-92 NSCLC
[5] = test system: HCC-2998 colon
[6] = test system: RXF 393 renal
[7] = test system: NCI-H23 lung
[8] = test system: UACC-257 melanoma
[9] = test system: NCI-H460 lung
[10] = test system: HT29 colon
[11] = test system: MOLT-4 leukemia
[12] = test system: U251 CNS
[13] = test system: TK-10 renal
[14] = test system: SNB-19 CNS
[15] = test system: T-47D breast
[16] = test system: OVCAR-5 ovarian
[17] = test system: SN12C renal
[18] = test system: UO-31 renal
[19] = test system: SK-MEL-2 melanoma
[20] = test system: MALME-3M melanoma
[21] = test system: SW-620 colon
[22] = test system: SK-MEL-28 melanoma
[23] = test system: MDA-MB-231 breast
[24] = test system: EKVX NSCLC
[25] = test system: MCF7 breast
[26] = test system: NCI-H226 lung
[27] = test system: LOX IMVI melanoma
[28] = test system: M14 melanoma
[29] = test system: OVCAR-8 ovarian
[30] = test system: HOP-62 NSCLC
[31] = test system: A498 renal
[32] = test system: SK-MEL-5 melanoma
[33] = test system: SF-295 CNS
[34] = test system: ACHN renal
[35] = test system: SNB-75 CNS
[36] = test system: CAKI-1 renal
[37] = test system: SF-268 CNS
[38] = test system: BT-549 breast
[39] = test system: HL-60(TB) leukemia
[40] = test system: SK-OV-3 ovarian
[41] = test system: DU-145 prostate
[42] = test system: UACC-62 melanoma
[43] = test system: HCT-15 colon
[44] = test system: OVCAR-4 ovarian
[45] = test system: RPMI-8226 leukemia
[46] = test system: KM12 colon
[47] = test system: SR leukemia
[48] = test system: MDA-MB-435
[49] = test system: K-562 leukemia
[50] = test system: A549 NSCLC
[51] = test system: HS 578T breast
[52] = test system: COLO 205 colon
[53] = test system: CCRF-CEM leukemia
[54] = test system: IGROV1 ovarian
[55] = test system: HCT-116 colon
[56] = test system: NCI/ADR-RES ovarian
[57] = test system: SF-539 CNS
[58] = test system: 786-0 renal

Question: Which TGI [1] does the source give for CC[C@H](C)[C@H](NC(=O)[C@H]1CCCCN1C)C(=O)N(C)[C@H](C[C@@H](OC(C)=O)c1nc(C(=O)N[C@@H](Cc2ccccc2)C[C@H](C)C(=O)OC)cs1)C(C)C here?
Answer: > 25000 nM

Question: What about the GI50 [2] of the same compound?
Answer: 0.0424 nM

Question: What about the TGI [2] of the same compound?
Answer: 11.6 nM

Question: What about the GI50 [3] of the same compound?
Answer: 0.28 nM and < 2.5 nM

Question: What about the TGI [3] of the same compound?
Answer: 13.5 nM and < 2.5 nM

Question: And the GI50 [4]?
Answer: 765 nM

Question: And the TGI [4]?
Answer: > 25000 nM

Question: What about the GI50 [5] of the same compound?
Answer: 0.32 nM and 2.5 nM

Question: And the TGI [5]?
Answer: > 25000 nM

Question: And the GI50 [6]?
Answer: 2.5 nM

Question: What about the TGI [6] of the same compound?
Answer: 22700 nM

Question: And the GI50 [7]?
Answer: 0.71 nM and 2.5 nM

Question: What about the TGI [7] of the same compound?
Answer: > 25000 nM

Question: What about the GI50 [8] of the same compound?
Answer: 8720 nM

Question: And the TGI [8]?
Answer: > 25000 nM

Question: What about the GI50 [9] of the same compound?
Answer: 0.295 nM and 2.5 nM

Question: And the TGI [9]?
Answer: > 25000 nM

Question: What about the GI50 [10] of the same compound?
Answer: 0.251 nM and < 2.5 nM

Question: What about the TGI [10] of the same compound?
Answer: 13.7 nM and < 2.5 nM

Question: What about the GI50 [11] of the same compound?
Answer: 3.31 nM and 2.5 nM

Question: And the TGI [11]?
Answer: > 25000 nM

Question: What about the GI50 [12] of the same compound?
Answer: 0.376 nM and 2.5 nM

Question: What about the TGI [12] of the same compound?
Answer: > 25000 nM

Question: What about the GI50 [13] of the same compound?
Answer: 25.4 nM

Question: What about the GI50 [14] of the same compound?
Answer: 0.431 nM and 2.5 nM

Question: What about the TGI [14] of the same compound?
Answer: > 25000 nM

Question: And the GI50 [15]?
Answer: 11800 nM

Question: What about the TGI [15] of the same compound?
Answer: > 25000 nM

Question: What about the GI50 [16] of the same compound?
Answer: 0.583 nM and 2.5 nM

Question: What about the TGI [16] of the same compound?
Answer: > 25000 nM

Question: What about the GI50 [17] of the same compound?
Answer: 0.76 nM and 2.5 nM

Question: What about the TGI [17] of the same compound?
Answer: > 25000 nM

Question: And the GI50 [18]?
Answer: 3.2 nM and 2.5 nM

Question: What about the TGI [18] of the same compound?
Answer: > 25000 nM

Question: And the GI50 [19]?
Answer: 0.463 nM and < 2.5 nM

Question: What about the TGI [19] of the same compound?
Answer: < 2.5 nM

Question: And the GI50 [20]?
Answer: 442 nM

Question: And the TGI [20]?
Answer: > 25000 nM

Question: What about the TGI [21] of the same compound?
Answer: > 25000 nM

Question: And the GI50 [22]?
Answer: > 25000 nM

Question: What about the TGI [22] of the same compound?
Answer: > 25000 nM

Question: What about the GI50 [23] of the same compound?
Answer: 1.02 nM and 2.5 nM

Question: What about the TGI [23] of the same compound?
Answer: > 25000 nM

Question: What about the GI50 [24] of the same compound?
Answer: 0.751 nM and 2.5 nM

Question: And the TGI [24]?
Answer: > 25000 nM

Question: And the TGI [25]?
Answer: > 25000 nM

Question: And the GI50 [26]?
Answer: 2.34 nM and < 2.5 nM

Question: And the TGI [26]?
Answer: < 2.5 nM

Question: And the GI50 [27]?
Answer: 0.536 nM and 2.5 nM

Question: What about the TGI [27] of the same compound?
Answer: > 25000 nM

Question: What about the GI50 [28] of the same compound?
Answer: 0.331 nM and < 2.5 nM

Question: And the TGI [28]?
Answer: < 2.5 nM

Question: And the GI50 [29]?
Answer: 0.473 nM and 2.5 nM

Question: And the TGI [29]?
Answer: > 25000 nM

Question: What about the GI50 [30] of the same compound?
Answer: 0.52 nM and 2.5 nM

Question: And the TGI [30]?
Answer: > 25000 nM

Question: What about the GI50 [31] of the same compound?
Answer: 0.267 nM and < 2.5 nM

Question: And the TGI [31]?
Answer: < 2.5 nM

Question: And the GI50 [32]?
Answer: 0.0909 nM and < 2.5 nM

Question: What about the TGI [32] of the same compound?
Answer: 4.55 nM and < 2.5 nM

Question: And the TGI [33]?
Answer: 0.762 nM and 4.68 nM

Question: And the GI50 [34]?
Answer: 0.773 nM and 2.5 nM

Question: What about the TGI [34] of the same compound?
Answer: > 25000 nM

Question: And the GI50 [35]?
Answer: 0.335 nM and 2.5 nM

Question: What about the GI50 [36] of the same compound?
Answer: 0.792 nM

Question: And the GI50 [37]?
Answer: 0.466 nM and 2.5 nM

Question: And the TGI [37]?
Answer: > 25000 nM

Question: And the GI50 [38]?
Answer: 0.385 nM and < 2.5 nM

Question: What about the TGI [38] of the same compound?
Answer: 16.9 nM and < 2.5 nM

Question: And the GI50 [39]?
Answer: 0.249 nM and < 2.5 nM

Question: What about the TGI [39] of the same compound?
Answer: 0.743 nM and < 2.5 nM

Question: And the GI50 [40]?
Answer: 0.264 nM and 2.5 nM

Question: What about the TGI [40] of the same compound?
Answer: > 25000 nM

Question: And the GI50 [41]?
Answer: 0.208 nM

Question: And the TGI [42]?
Answer: > 25000 nM

Question: What about the GI50 [43] of the same compound?
Answer: 0.332 nM and 2.5 nM

Question: What about the GI50 [44] of the same compound?
Answer: 4.79 nM and 2.5 nM

Question: What about the TGI [44] of the same compound?
Answer: > 25000 nM

Question: What about the TGI [45] of the same compound?
Answer: 8970 nM

Question: And the TGI [46]?
Answer: > 25000 nM

Question: And the TGI [47]?
Answer: 9590 nM

Question: And the GI50 [48]?
Answer: < 2.5 nM

Question: And the TGI [48]?
Answer: < 2.5 nM

Question: What about the GI50 [49] of the same compound?
Answer: 0.278 nM and 2.5 nM

Question: What about the TGI [49] of the same compound?
Answer: > 25000 nM

Question: And the GI50 [50]?
Answer: 0.523 nM and 2.5 nM

Question: And the TGI [50]?
Answer: > 25000 nM

Question: And the GI50 [51]?
Answer: 0.504 nM and 2.5 nM

Question: What about the TGI [51] of the same compound?
Answer: 6900 nM

Question: And the GI50 [52]?
Answer: 0.208 nM and < 2.5 nM

Question: And the TGI [52]?
Answer: 1.19 nM and < 2.5 nM

Question: And the GI50 [53]?
Answer: 0.552 nM and 2.5 nM

Question: And the TGI [53]?
Answer: 2500 nM

Question: What about the GI50 [54] of the same compound?
Answer: 2 nM and 2.5 nM

Question: And the TGI [54]?
Answer: > 25000 nM

Question: And the GI50 [55]?
Answer: 0.357 nM

Question: What about the GI50 [56] of the same compound?
Answer: 7.72 nM

Question: And the GI50 [57]?
Answer: 0.482 nM and < 2.5 nM

Question: And the TGI [57]?
Answer: 4.37 nM and < 2.5 nM

Question: What about the GI50 [58] of the same compound?
Answer: 0.366 nM and 2.5 nM

Question: What about the TGI [58] of the same compound?
Answer: 14800 nM
